Laboratory results as given in ChEMBL document CHEMBL1177783, “Discovery of aminopyridines substituted with benzoxazole as orally active c-Met kinase inhibitors” (Bioorg Med Chem Lett, 2010).

Columns and labels:
[1] = target: Hepatocyte growth factor receptor (Homo sapiens, UniProt P08581); test: Inhibition of recombinant c-MET by HTRF assay
hERG (KCNH2) = hERG (KCNH2) (Homo sapiens, UniProt Q12809); test: Displacement of [3H]astemizole from human ERG expressed in HEK293 cells at 10 uM; settings: HEK293 cells expressing human ERG, probe [3H]astemizole
Sequence of hERG (KCNH2) (Q12809 whole entry): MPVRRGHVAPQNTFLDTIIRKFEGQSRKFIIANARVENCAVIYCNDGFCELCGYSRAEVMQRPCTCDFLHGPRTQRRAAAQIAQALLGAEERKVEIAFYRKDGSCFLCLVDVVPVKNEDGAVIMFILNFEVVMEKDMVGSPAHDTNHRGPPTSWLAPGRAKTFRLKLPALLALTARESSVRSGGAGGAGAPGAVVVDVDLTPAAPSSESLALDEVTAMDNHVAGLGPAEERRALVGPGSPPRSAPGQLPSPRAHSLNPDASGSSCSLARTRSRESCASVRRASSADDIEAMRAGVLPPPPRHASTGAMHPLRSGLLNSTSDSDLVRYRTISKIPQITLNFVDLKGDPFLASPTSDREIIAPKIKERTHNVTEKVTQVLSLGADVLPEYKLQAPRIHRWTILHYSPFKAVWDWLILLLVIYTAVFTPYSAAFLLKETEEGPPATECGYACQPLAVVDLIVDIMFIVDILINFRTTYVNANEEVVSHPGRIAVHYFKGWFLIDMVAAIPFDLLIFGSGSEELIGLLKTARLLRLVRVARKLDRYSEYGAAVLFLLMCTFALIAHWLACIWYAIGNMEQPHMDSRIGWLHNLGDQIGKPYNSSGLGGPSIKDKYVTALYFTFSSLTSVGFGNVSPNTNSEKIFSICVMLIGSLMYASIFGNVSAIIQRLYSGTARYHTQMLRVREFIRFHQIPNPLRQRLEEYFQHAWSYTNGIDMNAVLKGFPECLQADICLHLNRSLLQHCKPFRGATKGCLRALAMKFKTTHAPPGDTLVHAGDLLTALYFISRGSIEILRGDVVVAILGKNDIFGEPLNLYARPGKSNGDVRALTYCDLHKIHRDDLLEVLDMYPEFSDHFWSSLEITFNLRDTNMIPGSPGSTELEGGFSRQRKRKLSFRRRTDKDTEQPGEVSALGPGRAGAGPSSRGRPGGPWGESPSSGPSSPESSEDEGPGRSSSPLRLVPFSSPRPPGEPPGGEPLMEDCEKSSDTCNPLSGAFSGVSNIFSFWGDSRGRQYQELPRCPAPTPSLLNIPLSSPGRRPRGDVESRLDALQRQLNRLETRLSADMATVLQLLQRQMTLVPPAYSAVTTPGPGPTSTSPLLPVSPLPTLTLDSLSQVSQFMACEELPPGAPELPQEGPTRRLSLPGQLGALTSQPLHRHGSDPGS

[2] = Cmax in rat at 10 mg/kg, po; assay type: ADME, organism-based; parameters: dose 10 mg/kg, route oral; settings: in vivo
[3] = AUC in rat at 10 mg/kg, iv; assay type: ADME, organism-based; parameters: dose 10 mg/kg, route intravenous; settings: plasma
[4] = AUC in rat at 10 mg/kg, po; assay type: ADME, organism-based; parameters: dose 10 mg/kg, route oral; settings: plasma
[5] = Clearance in rat at 10 mg/kg, iv; assay type: ADME, organism-based; parameters: dose 10 mg/kg, route intravenous; settings: in vivo
[6] = Volume of distribution at steady state in rat at 10 mg/kg, iv; assay type: ADME, organism-based; parameters: dose 10 mg/kg, route intravenous; settings: in vivo, read-out: Vdss
[7] = Oral bioavailability in rat at 10 mg/kg; assay type: ADME, organism-based; settings: in vivo

Sequence of Hepatocyte growth factor receptor (P08581 whole entry): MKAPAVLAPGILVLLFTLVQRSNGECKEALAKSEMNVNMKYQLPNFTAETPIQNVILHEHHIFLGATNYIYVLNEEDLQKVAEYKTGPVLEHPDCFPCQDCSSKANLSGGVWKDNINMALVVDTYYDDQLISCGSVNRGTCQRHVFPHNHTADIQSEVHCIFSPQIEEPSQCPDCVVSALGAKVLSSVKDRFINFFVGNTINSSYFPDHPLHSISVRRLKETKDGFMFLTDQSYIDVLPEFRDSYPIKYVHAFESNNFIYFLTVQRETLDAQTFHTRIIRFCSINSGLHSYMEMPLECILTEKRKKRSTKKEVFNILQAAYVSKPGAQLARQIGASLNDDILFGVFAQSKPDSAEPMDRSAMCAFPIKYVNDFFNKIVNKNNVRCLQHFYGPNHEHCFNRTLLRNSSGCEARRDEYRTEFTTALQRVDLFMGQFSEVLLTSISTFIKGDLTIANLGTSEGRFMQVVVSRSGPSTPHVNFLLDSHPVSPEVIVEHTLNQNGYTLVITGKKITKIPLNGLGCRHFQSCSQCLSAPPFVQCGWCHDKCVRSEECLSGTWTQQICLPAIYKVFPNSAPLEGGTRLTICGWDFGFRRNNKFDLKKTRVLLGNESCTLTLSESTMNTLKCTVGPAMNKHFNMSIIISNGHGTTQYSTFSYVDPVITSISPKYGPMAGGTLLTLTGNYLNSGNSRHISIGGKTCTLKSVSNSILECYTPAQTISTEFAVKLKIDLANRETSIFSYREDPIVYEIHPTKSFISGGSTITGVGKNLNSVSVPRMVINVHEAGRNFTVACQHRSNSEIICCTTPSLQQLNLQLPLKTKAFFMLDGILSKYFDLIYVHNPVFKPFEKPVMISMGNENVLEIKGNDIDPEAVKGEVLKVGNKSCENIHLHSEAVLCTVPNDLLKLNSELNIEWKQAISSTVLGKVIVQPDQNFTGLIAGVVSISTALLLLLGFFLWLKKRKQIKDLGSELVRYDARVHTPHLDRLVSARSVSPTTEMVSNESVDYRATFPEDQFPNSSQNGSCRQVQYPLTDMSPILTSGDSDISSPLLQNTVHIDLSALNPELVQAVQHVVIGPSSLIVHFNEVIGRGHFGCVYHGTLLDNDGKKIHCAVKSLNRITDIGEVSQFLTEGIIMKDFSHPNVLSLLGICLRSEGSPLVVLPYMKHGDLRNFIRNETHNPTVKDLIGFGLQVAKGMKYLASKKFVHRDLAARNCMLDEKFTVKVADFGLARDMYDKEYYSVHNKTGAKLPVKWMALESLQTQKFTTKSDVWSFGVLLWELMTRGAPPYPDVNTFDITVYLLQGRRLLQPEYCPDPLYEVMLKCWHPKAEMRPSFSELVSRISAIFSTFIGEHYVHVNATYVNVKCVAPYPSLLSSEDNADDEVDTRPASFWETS

SMILES	IC50 [1]	other results
CCN(CC)C(=O)N1CCC(n2cc(-c3cnc(N)c(-c4nc5ccccc5o4)c3)cn2)CC1	0.357 µM	–
COC(=O)N1CCC(n2cc(-c3cnc(N)c(-c4nc5ccccc5o4)c3)cn2)CC1	0.058 µM	–
CS(=O)(=O)N1CCC(n2cc(-c3cnc(N)c(-c4nc5ccccc5o4)c3)cn2)CC1	0.371 µM	–
COCC(=O)N1CCC(n2cc(-c3cnc(N)c(-c4nc5ccccc5o4)c3)cn2)CC1	0.017 µM	–
CN(C)CC(=O)N1CCC(n2cc(-c3cnc(N)c(-c4nc5ccccc5o4)c3)cn2)CC1	0.06 µM	–
Nc1ncc(-c2ccncc2)cc1-c1nc2ccccc2o1	5.2 µM	–
Nc1ncc(-c2cccnc2)cc1-c1nc2ccccc2o1	> 10 µM	–
Nc1ncc(-c2ccccc2)cc1-c1nc2ccccc2o1	> 10 µM	–
Cn1cc(-c2cnc(N)c(-c3nc4ccccc4o3)c2)cn1	2.1 µM	inhibition at 10 µM (hERG (KCNH2)): 15%
Nc1ncc(-c2cnn(C3CCOCC3)c2)cc1-c1nc2ccccc2o1	0.43 µM	–
Nc1ncc(-c2cnn(C3CCNCC3)c2)cc1-c1nc2ccccc2o1	0.08 µM	–
Cn1cc(-c2cncc(-c3nc4ccccc4o3)c2)cn1	> 10 µM	–
CCC(=O)N1CCC(n2cc(-c3cnc(N)c(-c4nc5ccccc5o4)c3)cn2)CC1	0.007 µM	–
Nc1ncc(-c2cnn(C3CCN(C(=O)c4ccccc4)CC3)c2)cc1-c1nc2ccccc2o1	0.14 µM	–
Nc1ncc(-c2cnn(CCO)c2)cc1-c1nc2ccccc2o1	1.3 µM	–
CC(=O)N1CCC(n2cc(-c3cnc(N)c(-c4nc5ccccc5o4)c3)cn2)CC1.Cl	0.003 µM	Cmax [2]: 600 ng/mL; AUC [3]: 5600 ng·h/mL; AUC [4]: 2700 ng·h/mL; clearance [5]: 30 mL/min/kg; Vd [6]: 2.4 L/kg; bioavailability [7]: 47%
Nc1ncc(-c2cnn(C3CCN(C(=O)CO)CC3)c2)cc1-c1nc2ccccc2o1	0.026 µM	–
c1ccc2oc(-c3cncc(-c4cnn(C5CCNCC5)c4)c3)nc2c1	> 10 µM	–
CNc1ncc(-c2cnn(C)c2)cc1-c1nc2ccccc2o1	> 10 µM	–
Cn1cc(-c2cnc(NCc3ccccc3)c(-c3nc4ccccc4o3)c2)cn1	> 10 µM	–
CNc1ncc(-c2cnn(C3CCNCC3)c2)cc1-c1nc2ccccc2o1	> 10 µM	–
